Like-named read-outs stand apart in the source and are kept apart here.
Columns and labels:
EGFR del19/T790M/C797S = EGFR del19/T790M/C797S (Homo sapiens, UniProt P00533, C797S/DEL746-750/T790M); assay: Biochemical EGFR kinase assay (Lance Ultra TR-FRET), triple mutant del19/T790M/C797S
In short: (§1)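 Step 1: compound in kinase buffer, 0.003–10 μM. Step 2: kinase reaction 1 h at room temperature. Step 4: TR-FRET read at 615/665 nm; IC50 calculated.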

EGFR wildtype (WT) = EGFR wildtype (WT) (Homo sapiens, UniProt P00533); assay: Biochemical EGFR kinase assay (Lance Ultra TR-FRET), wildtype
In short: as §1

EGFR del19/C797S = EGFR del19/C797S (Homo sapiens, UniProt P00533, C797S/DEL746-750); assay: Biochemical EGFR kinase assay (Lance Ultra TR-FRET), double mutant del19/C797S
EGFR del19/C797S, sequence (P00533 with tags, fused parts or gaps DEL746-750/C797S): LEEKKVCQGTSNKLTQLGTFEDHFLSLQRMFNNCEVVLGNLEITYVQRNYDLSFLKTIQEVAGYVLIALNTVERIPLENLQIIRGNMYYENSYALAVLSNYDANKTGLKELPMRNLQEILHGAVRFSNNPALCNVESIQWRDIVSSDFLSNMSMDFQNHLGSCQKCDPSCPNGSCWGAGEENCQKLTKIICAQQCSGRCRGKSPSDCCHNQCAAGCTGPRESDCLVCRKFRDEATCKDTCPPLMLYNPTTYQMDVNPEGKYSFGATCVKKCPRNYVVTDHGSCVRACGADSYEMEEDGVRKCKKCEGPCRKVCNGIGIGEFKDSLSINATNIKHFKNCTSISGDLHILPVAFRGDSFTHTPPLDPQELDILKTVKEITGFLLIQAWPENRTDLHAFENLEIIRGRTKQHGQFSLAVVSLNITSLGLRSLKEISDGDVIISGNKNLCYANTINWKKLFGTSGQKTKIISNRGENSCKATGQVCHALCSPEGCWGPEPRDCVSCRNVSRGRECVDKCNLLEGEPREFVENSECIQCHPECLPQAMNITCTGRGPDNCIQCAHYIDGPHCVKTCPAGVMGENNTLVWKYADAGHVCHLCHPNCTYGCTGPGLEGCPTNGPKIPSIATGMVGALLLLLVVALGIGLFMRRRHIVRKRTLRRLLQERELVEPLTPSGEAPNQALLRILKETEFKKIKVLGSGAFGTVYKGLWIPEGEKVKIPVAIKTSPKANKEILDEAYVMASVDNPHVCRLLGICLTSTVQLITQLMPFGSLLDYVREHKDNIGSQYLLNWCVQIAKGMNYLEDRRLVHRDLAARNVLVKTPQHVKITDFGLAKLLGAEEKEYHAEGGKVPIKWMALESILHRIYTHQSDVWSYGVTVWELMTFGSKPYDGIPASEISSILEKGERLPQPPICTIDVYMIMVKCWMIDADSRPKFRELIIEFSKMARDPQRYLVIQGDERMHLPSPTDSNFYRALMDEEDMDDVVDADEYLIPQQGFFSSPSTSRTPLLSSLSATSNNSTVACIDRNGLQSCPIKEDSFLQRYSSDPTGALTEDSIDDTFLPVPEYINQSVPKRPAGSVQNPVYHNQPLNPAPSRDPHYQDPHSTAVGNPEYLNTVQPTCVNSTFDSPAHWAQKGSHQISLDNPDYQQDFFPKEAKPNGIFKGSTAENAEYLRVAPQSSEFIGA
In short: as §1

EGFR L858R/C797S = EGFR L858R/C797S (Homo sapiens, UniProt P00533, C797S/L858R); assay: Biochemical EGFR kinase assay (Lance Ultra TR-FRET), double mutant L858R/C797S
EGFR L858R/C797S, sequence (P00533 25-1210 C797S/L858R): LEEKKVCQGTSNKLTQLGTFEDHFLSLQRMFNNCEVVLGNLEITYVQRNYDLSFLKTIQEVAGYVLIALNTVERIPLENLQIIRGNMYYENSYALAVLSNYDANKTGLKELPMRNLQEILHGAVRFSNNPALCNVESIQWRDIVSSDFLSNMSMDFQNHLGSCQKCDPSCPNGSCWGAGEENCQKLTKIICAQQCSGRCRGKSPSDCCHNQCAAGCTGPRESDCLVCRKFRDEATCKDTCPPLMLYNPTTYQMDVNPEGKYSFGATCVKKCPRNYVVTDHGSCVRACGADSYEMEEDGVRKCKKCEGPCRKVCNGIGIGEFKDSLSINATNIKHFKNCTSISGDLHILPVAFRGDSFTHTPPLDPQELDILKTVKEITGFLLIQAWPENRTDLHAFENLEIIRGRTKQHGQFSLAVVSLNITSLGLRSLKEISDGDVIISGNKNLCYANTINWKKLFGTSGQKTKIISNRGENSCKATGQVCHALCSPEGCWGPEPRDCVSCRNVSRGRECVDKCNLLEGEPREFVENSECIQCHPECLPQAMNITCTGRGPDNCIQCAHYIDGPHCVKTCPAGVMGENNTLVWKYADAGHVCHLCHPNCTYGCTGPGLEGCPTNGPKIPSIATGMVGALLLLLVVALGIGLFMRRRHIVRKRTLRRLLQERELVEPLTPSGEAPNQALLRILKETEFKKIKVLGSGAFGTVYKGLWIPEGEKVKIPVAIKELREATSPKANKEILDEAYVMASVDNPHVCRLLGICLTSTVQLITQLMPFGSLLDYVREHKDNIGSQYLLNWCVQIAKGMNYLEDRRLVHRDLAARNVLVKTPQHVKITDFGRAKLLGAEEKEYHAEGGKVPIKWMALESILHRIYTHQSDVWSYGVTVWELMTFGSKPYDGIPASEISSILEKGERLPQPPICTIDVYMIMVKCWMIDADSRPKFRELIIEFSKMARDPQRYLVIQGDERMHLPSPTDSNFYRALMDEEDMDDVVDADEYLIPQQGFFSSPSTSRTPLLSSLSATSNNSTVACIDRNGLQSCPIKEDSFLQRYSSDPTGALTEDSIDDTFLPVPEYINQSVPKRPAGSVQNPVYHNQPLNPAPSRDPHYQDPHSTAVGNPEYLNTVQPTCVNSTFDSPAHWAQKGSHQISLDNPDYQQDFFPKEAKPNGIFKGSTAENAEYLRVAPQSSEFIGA
In short: as §1

EGFR L858R/T790M/C797S = EGFR L858R/T790M/C797S (Homo sapiens, UniProt P00533, C797S/L858R/T790M); assay: Biochemical EGFR kinase assay (Lance Ultra TR-FRET), triple mutant L858R/T790M/C797S
EGFR L858R/T790M/C797S, sequence (P00533 25-1210 T790M/C797S/L858R): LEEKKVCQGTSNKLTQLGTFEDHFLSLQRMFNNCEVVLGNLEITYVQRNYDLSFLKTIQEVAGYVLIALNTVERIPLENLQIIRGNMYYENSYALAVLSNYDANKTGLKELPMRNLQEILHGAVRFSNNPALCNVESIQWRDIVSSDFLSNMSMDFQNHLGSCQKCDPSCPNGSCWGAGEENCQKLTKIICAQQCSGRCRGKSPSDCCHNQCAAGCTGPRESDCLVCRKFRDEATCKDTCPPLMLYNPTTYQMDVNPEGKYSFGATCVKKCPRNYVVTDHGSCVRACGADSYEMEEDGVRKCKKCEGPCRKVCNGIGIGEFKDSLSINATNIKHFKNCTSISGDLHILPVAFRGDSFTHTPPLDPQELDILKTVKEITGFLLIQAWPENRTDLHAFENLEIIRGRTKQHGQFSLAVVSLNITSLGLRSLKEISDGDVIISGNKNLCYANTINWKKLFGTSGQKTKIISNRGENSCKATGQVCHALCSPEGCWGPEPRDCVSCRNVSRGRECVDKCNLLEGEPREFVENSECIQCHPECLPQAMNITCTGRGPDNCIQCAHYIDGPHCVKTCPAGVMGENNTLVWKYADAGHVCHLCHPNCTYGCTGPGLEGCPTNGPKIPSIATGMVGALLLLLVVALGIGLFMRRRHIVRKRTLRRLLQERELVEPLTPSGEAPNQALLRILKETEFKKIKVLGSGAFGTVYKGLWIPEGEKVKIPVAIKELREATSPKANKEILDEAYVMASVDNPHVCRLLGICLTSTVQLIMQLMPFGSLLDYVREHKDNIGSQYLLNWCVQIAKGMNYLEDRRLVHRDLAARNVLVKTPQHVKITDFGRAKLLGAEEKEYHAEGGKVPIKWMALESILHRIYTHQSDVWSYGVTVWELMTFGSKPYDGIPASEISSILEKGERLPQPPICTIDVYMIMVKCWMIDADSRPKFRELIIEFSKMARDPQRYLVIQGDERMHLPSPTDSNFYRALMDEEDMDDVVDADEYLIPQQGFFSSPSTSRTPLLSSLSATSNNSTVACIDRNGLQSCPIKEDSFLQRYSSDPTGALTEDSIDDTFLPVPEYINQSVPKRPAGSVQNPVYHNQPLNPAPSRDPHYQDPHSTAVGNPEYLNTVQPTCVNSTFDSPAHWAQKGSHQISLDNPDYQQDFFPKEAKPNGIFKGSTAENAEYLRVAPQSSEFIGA
In short: as §1

[1] = Km ATP, read-out: IC50 del19/T790M/C797S (nM) Km ATP
[2] = Km ATP, read-out: IC50 WT (nM) Km ATP
[3] = Km ATP, read-out: IC50 del19/C797S (nM) Km ATP
[4] = Km ATP, read-out: IC50 L858R/C797S (nM) Km ATP
[5] = Km ATP, read-out: IC50 L858R/T790M/C797S (nM) Km ATP
[6] = IC50 del19/T790M/C797S (nM) 100 μM ATP, 100 μM ATP
[7] = IC50 WT (nM) 100 μM ATP, 100 μM ATP
[8] = IC50 del19/C797S (nM) 100 μM ATP, 100 μM ATP
[9] = IC50 L858R/C797S (nM) 100 μM ATP, 100 μM ATP
[10] = IC50 L858R/T790M/C797S (nM) 100 μM ATP, 100 μM ATP

EGFR del19/T790M/C797S, sequence (P00533 with tags, fused parts or gaps DEL746-750/T790M/C797S): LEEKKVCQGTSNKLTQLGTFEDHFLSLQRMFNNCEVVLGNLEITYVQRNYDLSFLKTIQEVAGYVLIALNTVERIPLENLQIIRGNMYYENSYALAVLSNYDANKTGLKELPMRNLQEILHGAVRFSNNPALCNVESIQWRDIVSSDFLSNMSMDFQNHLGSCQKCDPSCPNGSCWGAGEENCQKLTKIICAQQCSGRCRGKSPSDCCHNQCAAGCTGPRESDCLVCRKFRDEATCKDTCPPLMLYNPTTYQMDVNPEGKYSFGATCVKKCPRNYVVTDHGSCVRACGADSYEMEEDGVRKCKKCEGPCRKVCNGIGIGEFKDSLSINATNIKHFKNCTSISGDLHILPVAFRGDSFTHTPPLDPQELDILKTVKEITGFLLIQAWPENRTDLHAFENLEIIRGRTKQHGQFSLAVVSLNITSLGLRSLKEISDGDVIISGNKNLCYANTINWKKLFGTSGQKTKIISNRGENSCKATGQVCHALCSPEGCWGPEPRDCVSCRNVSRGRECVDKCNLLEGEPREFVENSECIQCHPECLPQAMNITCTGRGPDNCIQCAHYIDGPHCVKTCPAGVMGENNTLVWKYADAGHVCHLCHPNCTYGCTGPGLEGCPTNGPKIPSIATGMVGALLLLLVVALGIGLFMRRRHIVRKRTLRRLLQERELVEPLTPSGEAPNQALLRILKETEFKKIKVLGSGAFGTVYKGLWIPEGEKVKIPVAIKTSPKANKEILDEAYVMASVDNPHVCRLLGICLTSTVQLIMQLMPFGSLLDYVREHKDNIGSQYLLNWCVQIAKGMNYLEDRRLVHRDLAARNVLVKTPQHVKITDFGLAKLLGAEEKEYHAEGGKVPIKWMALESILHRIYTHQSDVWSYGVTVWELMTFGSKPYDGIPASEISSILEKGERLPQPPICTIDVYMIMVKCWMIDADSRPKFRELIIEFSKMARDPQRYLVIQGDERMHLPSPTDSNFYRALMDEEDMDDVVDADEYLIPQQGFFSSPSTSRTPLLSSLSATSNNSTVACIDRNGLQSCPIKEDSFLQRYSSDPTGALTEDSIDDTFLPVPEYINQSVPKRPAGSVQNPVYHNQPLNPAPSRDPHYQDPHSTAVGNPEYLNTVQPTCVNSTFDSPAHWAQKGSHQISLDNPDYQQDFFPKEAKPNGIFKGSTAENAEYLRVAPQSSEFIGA

Structure (SMILES): COCn1ccc(-c2cnc(Nc3ccnc(-c4cnn(S(=O)(=O)C5CC5)c4)n3)cc2N[C@H]2CC[C@@](C)(O)CC2)n1 [Example 294, (1s,4s)-4-((2-((2-(1-(Cyclopropylsulfonyl)-1H-pyrazol-4-yl)pyrimidin-4-yl)amino)-5-(1-(methoxymethyl)-1H-pyrazol-3-yl)pyridin-4-yl)amino)-1-methylcyclohexan-1-ol]
- IC50 (EGFR del19/T790M/C797S; [1]): 0.4 nM
- IC50 (EGFR wildtype (WT); [2]): 0.9 nM
- IC50 (EGFR del19/C797S; [3]): 1 nM
- IC50 (EGFR L858R/C797S; [4]): 0.1 nM
- IC50 (EGFR L858R/T790M/C797S; [5]): 0.2 nM

Structure (SMILES): Cn1ccc(-c2cnc(Nc3ccnc(-c4cnn(S(=O)(=O)C5CC5)c4)n3)cc2N[C@H]2CC[C@@H](F)CC2)n1 [Example 174, N^2-(2-(1-(Cyclopropylsulfonyl)-1H-pyrazol-4-yl)pyrimidin-4-yl)-N^4-((1s,4s)-4-fluorocyclohexyl)-5-(1-methyl-1H-pyrazol-3-yl)pyridine-2,4-diamine]
- IC50 (EGFR del19/T790M/C797S; [1]): 1.4 nM
- IC50 (EGFR wildtype (WT); [2]): 13.2 nM
- IC50 (EGFR del19/C797S; [3]): 2.4 nM
- IC50 (EGFR L858R/C797S; [4]): 0.5 nM
- IC50 (EGFR L858R/T790M/C797S; [5]): 0.8 nM

Structure (SMILES): O=S(=O)(C1CC1)n1cc(-c2nccc(Nc3cc(NC[C@H]4C[C@H](CO)C4)c(-c4ccn(C(F)F)n4)cn3)n2)cn1 [Example 189, ((1r,3r)-3-(((2-((2-(1-(Cyclopropylsulfonyl)-1H-pyrazol-4-yl)pyrimidin-4-yl)amino)-5-(1-(difluoromethyl)-1H-pyrazol-3-yl)pyridin-4-yl)amino)methyl)cyclobutyl)methanol]
- IC50 (EGFR del19/T790M/C797S; [6]): 0.4 nM
- IC50 (EGFR del19/T790M/C797S; [1]): 0.5 nM
- IC50 (EGFR wildtype (WT); [7]): > 10000 nM
- IC50 (EGFR wildtype (WT); [2]): 20.1 nM
- IC50 (EGFR del19/C797S; [8]): 1.8 nM
- IC50 (EGFR del19/C797S; [3]): 1.2 nM
- IC50 (EGFR L858R/C797S; [9]): 27.1 nM
- IC50 (EGFR L858R/C797S; [4]): 3.1 nM
- IC50 (EGFR L858R/T790M/C797S; [10]): 0.2 nM
- IC50 (EGFR L858R/T790M/C797S; [5]): 0.3 nM

Structure (SMILES): CN(C)C[C@H]1CC[C@H](CNc2cc(Nc3ccnc(-c4cnn(S(=O)(=O)C5CC5)c4)n3)ncc2-c2ccn(C(F)F)n2)CC1 [Example 100, N^2-(2-(1-(Cyclopropylsulfonyl)-1H-pyrazol-4-yl)pyrimidin-4-yl)-5-(1-(difluoromethyl)-1H-pyrazol-3-yl)-N^4-(((1r,4r)-4-((dimethylamino)methyl)cyclohexyl)methyl)pyridine-2,4-diamine]
- IC50 (EGFR del19/T790M/C797S; [6]): 0.6 nM
- IC50 (EGFR del19/T790M/C797S; [1]): 0.5 nM
- IC50 (EGFR wildtype (WT); [7]): 582 nM
- IC50 (EGFR wildtype (WT); [2]): 1 nM
- IC50 (EGFR del19/C797S; [8]): 0.4 nM
- IC50 (EGFR del19/C797S; [3]): 0.5 nM
- IC50 (EGFR L858R/C797S; [9]): 1.4 nM
- IC50 (EGFR L858R/C797S; [4]): 0.3 nM
- IC50 (EGFR L858R/T790M/C797S; [10]): 0.5 nM
- IC50 (EGFR L858R/T790M/C797S; [5]): 0.3 nM

Structure (SMILES): O=S(=O)(C1CC1)n1cc(-c2nccc(Nc3cc(N[C@H]4CC[C@H](O)C4)c(-c4ccn(C(F)F)n4)cn3)n2)cn1 [Example 20, (1S,3S)-3-((2-((2-(1-(Cyclopropylsulfonyl)-1H-pyrazol-4-yl)pyrimidin-4-yl)amino)-5-(1-(difluoromethyl)-1H-pyrazol-3-yl)pyridin-4-yl)amino)cyclopentan-1-ol]
- IC50 (EGFR del19/T790M/C797S; [6]): 0.9 nM
- IC50 (EGFR del19/T790M/C797S; [1]): 0.3 nM
- IC50 (EGFR wildtype (WT); [7]): > 10000 nM
- IC50 (EGFR wildtype (WT); [2]): 21.1 nM
- IC50 (EGFR del19/C797S; [8]): 3.4 nM
- IC50 (EGFR del19/C797S; [3]): 1 nM
- IC50 (EGFR L858R/C797S; [9]): 51.9 nM
- IC50 (EGFR L858R/C797S; [4]): 3.1 nM
- IC50 (EGFR L858R/T790M/C797S; [5]): 0.2 nM

Structure (SMILES): CC(C)c1cc(-c2cnc(Nc3ccnc(-c4cnn(S(=O)(=O)C5CC5)c4)n3)cc2N[C@H]2CC[C@@](C)(O)CC2)on1 [Example 64, (1s,4s)-4-((2-((2-(1-(Cyclopropylsulfonyl)-1H-pyrazol-4-yl)pyrimidin-4-yl)amino)-5-(3-isopropylisoxazol-5-yl)pyridin-4-yl)amino)-1-methylcyclohexan-1-ol]
- IC50 (EGFR del19/T790M/C797S; [6]): 1 nM
- IC50 (EGFR del19/T790M/C797S; [1]): 1 nM
- IC50 (EGFR wildtype (WT); [7]): > 10000 nM
- IC50 (EGFR wildtype (WT); [2]): 42.9 nM
- IC50 (EGFR del19/C797S; [8]): 3.3 nM
- IC50 (EGFR del19/C797S; [3]): 2.7 nM
- IC50 (EGFR L858R/C797S; [9]): 21 nM
- IC50 (EGFR L858R/T790M/C797S; [5]): 0.5 nM

Structure (SMILES): CN(C)CC1(C)CCC(Nc2cc(Nc3ccnc(-c4cnn(S(=O)(=O)C5CC5)c4)n3)ncc2-c2ccn(CC(F)F)n2)CC1 (centres unmarked) [Example 246, N^2-(2-(1-(Cyclopropylsulfonyl)-1H-pyrazol-4-yl)pyrimidin-4-yl)-5-(1-(2,2-difluoroethyl)-1H-pyrazol-3-yl)-N^4-(4-((dimethylamino)methyl)-4-methylcyclohexyl)pyridine-2,4-diamine]
- IC50 (EGFR del19/T790M/C797S; [6]): 0.9 nM
- IC50 (EGFR del19/T790M/C797S; [1]): 1 nM
- IC50 (EGFR wildtype (WT); [7]): 4510 nM
- IC50 (EGFR wildtype (WT); [2]): 15.4 nM
- IC50 (EGFR del19/C797S; [8]): 10.2 nM
- IC50 (EGFR del19/C797S; [3]): 7.1 nM
- IC50 (EGFR L858R/C797S; [9]): 400 nM
- IC50 (EGFR L858R/C797S; [4]): 19.9 nM
- IC50 (EGFR L858R/T790M/C797S; [10]): 1.1 nM
- IC50 (EGFR L858R/T790M/C797S; [5]): 0.3 nM

Structure (SMILES): O=S(=O)(C1CC1)n1cc(-c2nccc(Nc3cc(N[C@@H]4CC[C@H](O)C4)c(-c4ccn(C(F)F)n4)cn3)n2)cn1 [Example 13, (1S,3R)-3-((2-((2-(1-(Cyclopropylsulfonyl)-1H-pyrazol-4-yl)pyrimidin-4-yl)amino)-5-(1-(difluoromethyl)-1H-pyrazol-3-yl)pyridin-4-yl)amino)cyclopentan-1-ol]
- IC50 (EGFR del19/T790M/C797S; [6]): 0.7 nM
- IC50 (EGFR wildtype (WT); [7]): 5620 nM
- IC50 (EGFR del19/C797S; [8]): 3.8 nM
- IC50 (EGFR L858R/C797S; [9]): 12.4 nM
- IC50 (EGFR L858R/T790M/C797S; [10]): 1 nM
